The values that follow come from US11535599B2, “Benzisoxazole derivative” (Sumitomo Pharma Co., Ltd., priority 2020, dated 2022).

The target in one experiment is Rat striatum MAOB (Rattus norvegicus (Rat), UniProt P19643). Put plainly: Activity for inhibiting monoamine oxidase B (MAOB). The experiment is classed as biochemical. As to conditions: [14C] β-PEA substrate; read-out: Rat striatum MAOB IC50. The procedure:
MAOB is an enzyme involved in oxidative de-amino acid reaction of an endogenous monoamine neurotransmitter such as dopamine. […] The effect of the present compounds for inhibiting MAOB in rat striatum and simian striatum was tested.
Mitochondria⋅synaptosome fraction containing MAOB was prepared according to the following procedure. To striata of male Slc: Wistar rat (Japan SLC, Inc.) or male cynomolgus monkey (HAMRI CO., LTD.) was added 0.32 mol/L aqueous sucrose by 10 mL per 1 gram as wet weight of the tissue, and the mixture was homogenized. The homogenate was centrifuged at 4° C. at 1,000 g for 10 minutes, and the obtained supernatant was centrifuged again at 4° C. at 17,200 g for 20 minutes. To the obtained precipitate was added a prepared buffer solution (10 mmol/L Tris-HCl buffer solution (pH 7.4), 0.25 mol/L aqueous sucrose, 0.5 mmol/L EDTA-2K) by 10 mL per 1 gram as wet weight of the original tissue, and the mixture was centrifuged again at 4° C. at 17,200 g for 20 minutes. To the obtained precipitate was added the prepared buffer solution by 40 mL per 1 gram as wet weight of the original tissue. The mixture was suspended to be used as an enzyme homogenate solution.
As a substance to be degraded by MAOB, ^14C-labeled β-phenylethylamine ([^14C] β-PEA) was used. [^14C] β-PEA and the present compound solution diluted to each concentration were incubated with the enzyme homogenate solution at 37° C. for a given period, and then the reaction was stopped by adding 3 mol/L cold HCl thereto. The reaction product was extracted with a mixture of water-saturated toluene and ethyl acetate (1:1). The supernatant organic layer was separated, a liquid scintillation cocktail (ACSII, GE Healthcare) was added to the separated organic layer, and the radioactivity was measured with a liquid scintillation counter (TRI-CARB 3100TR, Packard). The IC50 value of each compound was determined based on two parameter logistic model with the inhibitory data of each concentration, said data were obtained from plural trials.

Experiment [1] concerns rat sleep electroencephalogram. As to the kind of experiment: Effect for sleeping stage/waking stage, rat sleep electroencephalogram. As to conditions: 30 or 100 mg/kg oral, 6 hours. The experiment is classed as in vivo. How it is done: As non-motor symptoms in Parkinson's disease, sleep disorder such as insomnia (e.g. difficulty falling asleep, nocturnal awakening, etc.) is known. It is important to improve sleeping quality. The effect of the present compounds for sleep was evaluated by measuring rat sleep electroencephalogram.
In the present test, male Crlj: WI rats (CHARLES RIVER LABORATORIES JAPAN, INC.) were used. Under anesthesia, a radiofrequency transmitter (HD-S02, Data Science International, Inc.) was set in the peritoneal cavity of the rat, and two electrodes for measuring electroencephalogram were stereotaxically placed in the skull (frontoparietal electrode: 2 mm ahead of bregma and 2 mm left from midline, parietal electrode: 5 mm behind bregma and 2 mm right from midline). An electrode for recording electromyogram was placed in the dorsal neck muscle. After more than one week as postoperative recuperation period, the rats were used in the sleep electroencephalogram measurement.
The compound of Example 13 (30 mg/kg or 100 mg/kg) was orally administered to the rat just before light phase, and the electroencephalogram and electromyogram of the rat were recorded at 500 Hz for 6 hours in a breeding cage in a soundproof box. The recorded signals were classified to 3 stages, wake/REM sleep/non-REM sleep every 10 seconds with a sleep analysis program Sleepsign (version 3, Kissei Comtec Co., Ltd.), and aggregated. Specifically, when the myoelectric response was beyond the threshold defined for each individual animal, it was classified as wake, and otherwise it was classified as sleep. In the sleep, when the power value at delta wave (0.5-4 Hz) of EEG-frequency component was beyond the threshold defined for each individual beforehand, it was classified as non-REM sleep. When the power value at theta wave (4-8 Hz) was beyond 40% of the total power value at 0.5-80 Hz, it was classified as REM sleep.

The target in another experiment is human CA-II (Homo sapiens (Human), UniProt P00918). Put plainly: Activity for inhibiting carbonic anhydrase (CA). As to conditions: 4-nitrophenyl acetate substrate. The experiment is classed as biochemical. The procedure: CA is a zinc metalloenzyme family which catalyzes reversible hydration between carbon dioxide, and bicarbonate and proton.
As a substance for decomposition by CA-II, 4-nitrophenyl acetate was used herein. 4-Nitrophenyl acetate is […] with CA-II to produce 4-nitrophenol. […] To the diluted solution were added […] (final concentration: 5 mmol/L) and the present compound of each concentration, and the mixture was incubated at 37° C. under shading for 30 minutes. […] The IC50 of the compound was obtained through the two-parameter logistic model with the inhibitory rate data in each concentration which was obtained from plural trials.

In experiment [2] the test system is harmaline-induced essential tremor model. As to the kind of experiment: Anti-tremor effect in harmaline-induced essential tremor model. The experiment is classed as in vivo, mouse. As to conditions: Examples 1, 13: 25 or 50 mg/kg, Example 14: 3.125-25 mg/kg oral; β-propranolol 10 mg/kg i.p. How it is done: As an animal model of essential tremor, an animal administrated with harmaline is broadly used in its evaluation test. […] The effect of the present compounds for harmaline-acute-administration-induced tremor was studied. To male Crl: CD1 mice (6-7 weeks old) (CHARLES RIVER LABORATORIES JAPAN, INC.), harmaline (30 mg/kg) was intraperitoneally administered to induce tremor. The present compound (Example 1 (25 mg/kg or 50 mg/kg), Example 13 (25 mg/kg or 50 mg/kg), or Example 14 (3.125 mg/kg, 6.25 mg/kg, 12.5 mg/kg, or 25 mg/kg)) was orally administered to the mouse one hour before the administration of harmaline. And, saline or β-propranolol (10 mg/kg) which is a positive control compound was intraperitoneally administered to the mouse 20 minutes before the administration of harmaline. 35 minutes before the administration of harmaline, the mouse was put into a measurement cage (an acrylic cylinder set in a horizontal direction, φ 65 mm, length 145 mm), one cage to one mouse, said measurement cage was in a soundproof box of a startle response instrument (O'hara & Co., Ltd., Tokyo). The trembling that the mouse gave were recorded over time as tremor data. The animal was put into cage, and the data were recorded for 20 minutes just before (PRE) and just after (POST) the administration of harmaline. The time-series signal data were analyzed about frequency with an analysis software, VitalTracer and BIMUTAS II-A (both, Kissei Comtech Co., Ltd., Matsumoto-shi). At 12-15 Hz or 12-18 Hz as a frequency which increases with tremor, the spectrum amounts were extracted, and the tremor intensity T of each subject was calculated according to the following formula. T=POST/PRE

Experiment [3] deals with unilateral lesion model of nigrostriatal dopamine neuron induced with 6-OHDA. As to the kind of experiment: Extending duration of levodopa-induced rotational behavior in 6-OHDA unilateral lesion model. The experiment is classed as in vivo, rat. As to conditions: Examples 10 or 30 mg/kg oral; rasagiline 0.6 mg/kg; with levodopa 5 mg/kg i.p.

Chain of Rat striatum MAOB (P19643 whole entry): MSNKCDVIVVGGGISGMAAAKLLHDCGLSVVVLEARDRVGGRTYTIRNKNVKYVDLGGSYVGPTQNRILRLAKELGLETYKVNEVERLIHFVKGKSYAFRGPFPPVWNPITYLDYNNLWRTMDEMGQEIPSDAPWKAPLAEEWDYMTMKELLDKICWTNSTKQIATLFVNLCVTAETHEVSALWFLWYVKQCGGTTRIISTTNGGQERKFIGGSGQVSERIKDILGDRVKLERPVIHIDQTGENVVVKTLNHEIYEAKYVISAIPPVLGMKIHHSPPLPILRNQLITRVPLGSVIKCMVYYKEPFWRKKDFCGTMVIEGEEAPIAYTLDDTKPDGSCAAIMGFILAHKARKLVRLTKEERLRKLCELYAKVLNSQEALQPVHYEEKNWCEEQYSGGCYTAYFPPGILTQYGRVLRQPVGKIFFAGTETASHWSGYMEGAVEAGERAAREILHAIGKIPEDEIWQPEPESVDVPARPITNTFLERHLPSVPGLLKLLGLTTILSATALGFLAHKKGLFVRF

By IC50 is commonly meant the concentration that gives 50% inhibition. Regarding `C[C@H](c1noc2ccccc12)S(N)(=O)=O` [Example 13, (1R)-1-(1,2-benzoxazol-3-yl)ethane-1-sulfonamide], the IC50 at Rat striatum MAOB is greater than 600 µM. In addition, in experiment [1], the REM sleep latency result is “tended to elongate”, the REM sleep time entry is given as “significantly shortened”, the non-REM sleep latency entry is listed as “significantly shortened” and the non-REM sleep time entry is on record as “increased”. In addition, in experiment [1], the waking time entry was “significantly shortened”. The same compound gave an IC50 on human CA-II of 18.2 µM. Further, in experiment [2], the harmaline-induced tremor intensity entry was “inhibited harmaline-induced tremor”. In experiment [3], the “rotational number in the late phase (100-120 minutes)” value is recorded as “significantly increased the rotational number in the late phase”.
As to `CC(c1noc2ccccc12)S(N)(=O)=O` (stereo not shown) [Example 1, 1-(Benzo[d]isoxazol-3-yl)ethane-1-sulfonamide], the IC50 on Rat striatum MAOB was 349 µM; on human CA-II, 26.5 µM. The harmaline-induced tremor intensity result in experiment [2] was “inhibited harmaline-induced tremor”. Further, in experiment [3], the “rotational number in the late phase (100-120 minutes)” value is listed as “significantly increased the rotational number in the late phase”.
